Assays:
Drosophila S2 cells = experiment: NAM/PI staining of Drosophila S2 cells, fluorescence microscopy; format: cell-based, Drosophila melanogaster; conditions: S2 cells diluted 10 times in PBS; 10 μg/mL NAM
Description: Materials and Methods. Drosophila S2 cells were grown at 28° C. without shaking in Schneider's Drosophila medium (Invitrogen, #21720) supplemented with 10% heat-inactivated fetal bovine serum (Invitrogen, #10108-165). S2 cells (cell density 1.7×10^7, 99% viable determined using the YC-100 NucleoCounter system with diploid settings following the manufacturer's (ChemoMetec) protocol) were diluted 10 times in PBS and stained with 10 μg/mL NAM (Sigma, #01665). Cells were loaded into a NucleoCassette, containing the DNA stain propidium iodide (PI). The cells were investigated using an Olympus IX50 fluorescence microscope, and images were captured using a Lumenera CCD camera and in-house developed software. PI and NAM fluorescence were detected using, respectively, U-MWG2 (green long pass: 510-550 nm) and U-MNUA2 (UV band pass, 330-385 nm) filter cubes (Olympus).

[1] = test system: primary murine splenocytes; experiment: NAM/PI staining of primary murine splenocytes; format: cell-based, C57BL/6 mouse; conditions: splenocytes 90% viable; 10 μL NAM (100 μg pr. mL DMSO) to 90 μL cells
Description: Materials and Methods. The spleen from a C57BL/6 mouse was placed in ice-cold PBS and gently ground using the end of a sterile syringe. The suspension was centrifuged at 300 g for 10 minutes; the pellet was resuspended in 1 mL 0.83% NH4Cl to lyse erythrocytes and incubated for 3 minutes on ice. The cells were then added 14 mL PBS and centrifuged at 300 g for 10 minutes. The splenocytes were resuspended in RPMI (Invitrogen, #61870) supplemented with 10% heat-inactivated fetal bovine serum (Invitrogen, #10108-165), 100 U/mL penicillin and 100 μg/mL streptomycin (Invitrogen, #15140-122). The cell clumps were allowed to sediment and were removed by pipetting, and the resulting single cell suspension was used. 90 μL splenocytes (cell density 1.7×10^6, 90% viable determined using the NC-100 NucleoCounter system following the manufacturer's (ChemoMetec A/S) protocol) were added 10 μL NAM (N-(9-acridinyl)maleimide, Sigma, #01665, CAS no. 49759-20-8) dissolved in DMSO (100 μg NAM pr. mL DMSO) and mixed by pipetting. […] The cells were investigated using an Olympus IX50 fluorescence microscope, and images were captured using a Lumenera CCD camera and in-house developed software. PI and NAM fluorescence were detected using, respectively, U-MWG2 (green long pass: 510-550 nm) and U-MNUA2 (UV band pass, 330-385 nm) filter cubes (Olympus).

bone marrow cells = experiment: NAM/PI staining of bone marrow derived cells; format: cell-based, murine; conditions: bone marrow cells 93% viable; 10 μL NAM (100 μg pr. mL DMSO) to 90 μL cells
Description: Materials and Methods. The bone marrow cells were harvested aseptically in the laminarflow hood. Briefly, bilateral tibia and femur were aseptically removed, freed of surrounding soft tissue, and placed in a petri dish with 10 mL 70% ethanol. After 2 minutes they were transferred to ice cold PBS. The bone marrow cavity was then flushed with 5 ml cold PBS using a 5-ml syringe with a 27-gauge needle attached, and the cells were collected from each bone. The cells were centrifuged at 300 g for 10 min, the supernatant was discarded, and cells were washed twice. […] 90 μL bone marrow cellss (cell density 1.7×10^6, 93% viable determined using the NC-100 NucleoCounter system following the manufacturer's (ChemoMetec A/S) protocol) were added 10 μL NAM (N-(9-acridinyl)maleimide, Sigma, #01665, CAS no. 49759-20-8) dissolved in DMSO (100 μg NAM pr. mL DMSO) and mixed by pipetting. […] The cells were investigated using an Olympus IX50 fluorescence microscope, and images were captured using a Lumenera CCD camera and in-house developed software. PI and NAM fluorescence were detected using, respectively, U-MWG2 (green long pass: 510-550 nm) and U-MNUA2 (UV band pass, 330-385 nm) filter cubes (Olympus).

## O=C1C=CC(=O)N1c1c2ccccc2nc2ccccc12 [NAM, N-(9-acridinyl)maleimide]
Drosophila S2 cells
  staining of cells versus PI: NAM and PI were found to complementary stain S2 cells
[1]
  staining of cells (UV filter) versus PI positive cells: nearly all the primary spleen cells were stained by NAM
Bone marrow cells
  staining of cells (UV filter) versus PI positive cells: nearly all the primary bone marrow cells were stained by NAM

— patent publication US9128097B2, “Method and kit for assessing viable cells” (ChemoMetec A/S, priority 2008, dated 2015)
